Experimental data reported in PMC9953746, “Dimeric Benzodiazepines as Peptide Mimetics to Overcome p53-Dependent Drug Resistance of Tumors” (Biomolecules, 2023).
Read-outs that look alike come from different tables or passages of the source. Marks after values point to notes of the source that are not given here.

Key:
solid tumors = tested on: solid tumors; design: method as in PMID 4959850; conditions: cited from earlier work
[1] = tested on: colorectal carcinoma HCT116; test: MTT cell viability assay, HCT116; assay type: cell-based, human; conditions: read-out: IC50 HCT116 (colon cancer)
Text: (§1) The following cell lines were used in this study: epidermoid carcinoma A-431 (ATCC® CRL-1555), lung carcinomas A549 (ATCC® CCL-185) and NCI-H1299 (ATCC® CRL-5803), colorectal carcinomas HCT116 (ATCC® CCL-247) and HCT116p53^−/−, normal skin fibroblasts BJ (ATCC® CRL-2522), and normal lung fibroblasts MRC-5 (ATCC® CCL-171). The HCT116 p53^−/− cell line was a kind gift from Professor Bert Vogelstein (John Hopkin’s University, Baltimore, MD, USA). The remaining cell lines were purchased from ATCC (Manassas, VA, USA). The cells were cultured in minimal, Dulbecco’s modified Eagle’s, or Ham’s F-12K medium supplemented with 10% fetal bovine serum (Gibco by Thermo Fisher Scientific, Waltham, MA, USA) and grown under standard culture conditions (37°C, 5% CO2) in a humidified incubator with an oxygen concentration of 21%. All of the experiments were performed with mycoplasma-free cells.
(§2) The viability of the cells was assayed by measuring the conversion of MTT (3-(4,5-dimethylthiazol-2-yl)-2,5-diphenyltetrazolium bromide) to formazan (the rate of this reaction is proportional to the number of surviving cells). The cells were seeded in 96-well culture plates at a density of 3500–5000 cells per well 24 h before the treatment. Six wells were considered for each experimental point (technical repeats). Treatments with increasing concentrations of 10, 11, or cisplatin (0.6–80 μM) were performed for 72 h. The MTT stock solution (Sigma-Aldrich by Merck, Darmstadt, Germany) was added at a final concentration of 0.5 mg/mL. After 4 h of incubation at 37 °C, the water-insoluble formazan was dissolved in a lysis buffer containing 20% SDS, 50% DMF, 2.5% hydrochloric acid, and 2.5% acetic acid. The optical densities were measured at 570 nm using a scanning multi-well spectrophotometer (PARADIGM Detection Platform; Beckman Coulter, Brea, CA, USA). The ratio of the absorbance value of each tested group to the absorbance value of the untreated control was calculated, and each tested group’s cell viability was expressed as a percentage of the control. […]

lung carcinoma A549 = test: MTT cell viability assay, A549; assay type: cell-based, human; conditions: for IC50: read-out: IC50 A549 (lung cancer)
Text: as §1
(§3) The viability of the cells was assayed by measuring the conversion of MTT (3-(4,5-dimethylthiazol-2-yl)-2,5-diphenyltetrazolium bromide) to formazan (the rate of this reaction is proportional to the number of surviving cells). The cells were seeded in 96-well culture plates at a density of 3500–5000 cells per well 24 h before the treatment. Six wells were considered for each experimental point (technical repeats). Treatments with increasing concentrations of 10, 11, or cisplatin (0.6–80 μM) were performed for 72 h. The MTT stock solution (Sigma-Aldrich by Merck, Darmstadt, Germany) was added at a final concentration of 0.5 mg/mL. After 4 h of incubation at 37 °C, the water-insoluble formazan was dissolved in a lysis buffer containing 20% SDS, 50% DMF, 2.5% hydrochloric acid, and 2.5% acetic acid. The optical densities were measured at 570 nm using a scanning multi-well spectrophotometer (PARADIGM Detection Platform; Beckman Coulter, Brea, CA, USA). The ratio of the absorbance value of each tested group to the absorbance value of the untreated control was calculated, and each tested group’s cell viability was expressed as a percentage of the control. The cell viability assays were performed at least in triplicate using independent cell cultures.

lung carcinoma NCI-H1299 = test: MTT cell viability assay, NCI-H1299; assay type: cell-based, human; conditions: for IC50: read-out: IC50 NCI-H1299 (lung cancer)
Text: as §1, §3

[2] = tested on: colorectal carcinoma HCT116p53^−/−; test: MTT cell viability assay, HCT116p53-/-; assay type: cell-based, human; conditions: for IC50: 72 h, read-out: IC50 HCT116p53^−/− (colon cancer); for SI index: IC50 HCT116p53^−/−/IC50 HCT116: ratio of p53 knockout to wild-type HCT116
Text: as §1, §3

HCT116 cells = test: IncuCyte live-cell imaging, cell proliferation and death assay, HCT116; assay type: cell-based, human; conditions: 40 µM; for time at which cell death starts to increase significantly, HCT116: SYTOX Green Dead Cell Stain; for confluence, HCT116: up to 72 h, untreated 90%, DMSO 84% on the third day
Text: (§4) The cell proliferation and death were estimated in the IncuCyte S3 live-cell imaging system using the SYTOX™ Green Dead Cell Stain (Thermo, cat. no: S34860) and analyzed using the IncuCyte 2019B Rev2 software (Essen BioScience, Ann Arbor, MI, USA), according to the manufacturer’s instructions (https://www.sartorius.com/en/products/live-cell-imaging-analysis/live-cell-analysis-resources/live-cell-imaging-and-analsis-handbook (accessed on 21 October 2022)). The HCT116 and HCT116 p53^−/− cells were seeded in 96-well culture plates at a density of 5000 cells per well 24 h before the treatment. Four wells were considered for each experimental point. Treatments with 10, 11, cisplatin (40 μM), or dimethyl sulfoxide (which was used as a negative control at a concentration equal to the one used to dissolve 10 and 11) were carried out for up to 72 h, and images were recorded every 2 h during this time. The experiment was performed twice.

HCT116 p53^−/− cells = test: IncuCyte live-cell imaging, cell proliferation and death assay, HCT116p53-/-; assay type: cell-based, human; conditions: 40 µM; for confluence, HCT116p53^−/−: up to 72 h, untreated 88%, DMSO 83% on the third day; for time at which cell death starts to increase significantly, HCT116p53^−/−: SYTOX Green Dead Cell Stain
Text: as §4

[3] = tested on: epidermoid carcinoma A-431; test: MTT cell viability assay, A-431; assay type: cell-based, human; conditions: for IC50: read-out: IC50 A-431 (epidermoid cancer); for SI index: IC50 BJ/IC50 A-431: selectivity index, normal skin BJ vs A-431
Text: as §1, §3

[4] = tested on: normal skin fibroblasts BJ; test: MTT cell viability assay, BJ; assay type: cell-based, human; conditions: 72 h, read-out: IC50 BJ (normal skin)
Text: as §1, §2

[5] = tested on: normal lung fibroblasts MRC-5; test: MTT cell viability assay, MRC-5; assay type: cell-based, human; conditions: read-out: IC50 MRC-5 (normal lung)
Text: as §1, §3

HepG2 = tested on: HepG2; design: method as in PMID 26594756, PMID 32095421; conditions: in vitro; cited from earlier work
HCT-116 = tested on: HCT-116; design: method as in PMID 26594756, PMID 32095421; conditions: in vitro; cited from earlier work
MDA-MB-435 = tested on: MDA-MB-435; design: method as in PMID 26594756, PMID 32095421; conditions: in vitro; cited from earlier work
normal IKHE cell line = tested on: normal IKHE cell line; design: method as in PMID 26594756, PMID 32095421; conditions: in vitro; cited from earlier work
Calu-3 = tested on: Calu-3; design: method as in PMID 26594756, PMID 32095421; conditions: in vitro; cited from earlier work
[6] = tested on: Heps (liver cancer) cell line; design: method as in earlier work; conditions: cited from earlier work
Sarcoma 180 = tested on: Sarcoma 180; design: method as in earlier work; conditions: cited from earlier work
[7] = ratio of IC50 values vs cisplatin

Cc1ccc2c(c1O)NC(O)C1CC(/C=C/C(N)=O)=CN1C2=O (centres unmarked) [Anthramycin, anthramycin]
growth of solid tumors in mice (solid tumors): inhibited the growth of solid tumors in mice

N.N.[Cl][Pt][Cl] [Cisplatin, cisplatin, reference compound]
IC50 ([1]; MTT, 72 h, mean ± SD, n = 3): 3.51 ± 1.16 µM
IC50 (lung carcinoma A549; MTT, 72 h, mean ± SD, n = 3): 5.95 ± 1.28 µM
IC50 (lung carcinoma NCI-H1299; MTT, 72 h, mean ± SD, n = 3): 5.7 ± 0.88 µM
IC50 ([2]; MTT, mean ± SD, n = 3): 10.8 ± 2.86 µM
SI index: IC50 HCT116p53^−/−/IC50 HCT116 [2]: 3.18 ± 0.79 (*) ^c
time of highest number of SYTOX Green positive cells, HCT116 (HCT116 cells): 48 h
time at which cell death starts to increase significantly, HCT116 (HCT116 cells): 18 h
confluence, HCT116 (HCT116 cells): up to 16%
time to plateau of cell death, HCT116p53^−/− (HCT116 p53^−/− cells): about 72 h
cell death level (SYTOX Green positive cells) at plateau, HCT116p53^−/− (HCT116 p53^−/− cells; after about 72 h): 5116.3 ± 211.41
confluence, HCT116p53^−/− (HCT116 p53^−/− cells): up to 16%
IC50 ([3]; MTT, 72 h, mean ± SD, n = 3): 1.56 ± 0.29 µM
SI index: IC50 BJ/IC50 A-431 [3]: 3.26 ± 0.41 (**) ^c
SI index: IC50 BJ/IC50 A-431 ([3]; listed as cisplatin): 3.26 ± 0.41
IC50 ([4]; MTT, mean ± SD, n = 3): 5.06 ± 0.94 µM
IC50 ([5]; MTT, 72 h, mean ± SD, n = 3): 4.17 ± 0.88 µM

O=C1NC(CSCSCC2NC(=O)c3cc([N+](=O)[O-])ccc3NC2=O)C(=O)Nc2ccc([N+](=O)[O-])cc21 (centres unmarked) [Compound 10, 3,3′-((methylenebis(sulfanediyl))bis(methylene))bis(7-nitro-3,4-dihydro-1H-benzo[e][1,4]diazepine-2,5-dione)]
IC50 ([1]; Homo sapiens, HCT-116, MTT, 72 h, mean ± SD, n = 3): 5.31 ± 0.23 µM
IC50 (lung carcinoma A549; Homo sapiens, A549, MTT, 72 h, mean ± SD, n = 3): 1.6 ± 0.21 µM
times more cytotoxic than cisplatin, A549 (lung carcinoma A549; [7]): 3.72 times
IC50 (lung carcinoma NCI-H1299; Homo sapiens, NCI-H1299, MTT, 72 h, mean ± SD, n = 3): 1.07 ± 0.25 µM
times more cytotoxic than cisplatin, NCI-H1299 (lung carcinoma NCI-H1299; [7]): 5.33 times
IC50 ([2]; Homo sapiens, MTT, mean ± SD, n = 3): 5.56 ± 0.74 µM
SI index: IC50 HCT116p53^−/−/IC50 HCT116 [2]: 1.05 ± 0.19 (ns) ^c (*) ^b
time at which cell death starts to increase significantly, HCT116 (HCT116 cells): 24 h
confluence, HCT116 (HCT116 cells): up to 16%
time at which cell death starts to increase significantly, HCT116p53^−/− (HCT116 p53^−/− cells): 24 h
confluence, HCT116p53^−/− (HCT116 p53^−/− cells): up to 16%
IC50 ([3]; Homo sapiens, A-431, MTT, 72 h, mean ± SD, n = 3): 3.47 ± 0.32 µM
SI index: IC50 BJ/IC50 A-431 [3]: 4.88 ± 1.08 (**) ^c (ns) ^b
IC50 ([4]; Homo sapiens, Skin fibroblast, MTT, mean ± SD, n = 3): 16.7 ± 2.77 µM
IC50 ([5]; Homo sapiens, MRC5, 72 h, MTT, 72 h, mean ± SD, n = 3): 16.9 ± 2.96 µM
IC50 ([5]; MTT, 72 h, mean ± SD, n = 3): 16.9 ± 2.96 µM

O=C1NC(CSCSCC2NC(=O)c3ccc([N+](=O)[O-])cc3NC2=O)C(=O)Nc2cc([N+](=O)[O-])ccc21 (centres unmarked) [Compound 11, 3,3′-((methylenebis(sulfanediyl))bis(methylene))bis(8-nitro-3,4-dihydro-1H-benzo[e][1,4]diazepine-2,5-dione)]
IC50 ([1]; Homo sapiens, HCT-116, 72 h): 4.9 ± 0.53 µM
IC50 (lung carcinoma A549; Homo sapiens, A549, 72 h): 16.3 ± 4.65 µM
SI index: IC50 MRC-5/IC50 A549 (lung carcinoma A549; selectivity index, normal lung MRC-5 vs A549): 1.86 ± 0.79 (ns) ^c (ns) ^b
IC50 (lung carcinoma NCI-H1299; Homo sapiens, NCI-H1299, 72 h): 4.91 ± 1.45 µM
IC50 ([2]; Homo sapiens): 6.07 ± 0.9 µM
SI index: IC50 HCT116p53^−/−/IC50 HCT116 [2]: 1.26 ± 0.3 (ns) ^c (*) ^b
time at which cell death starts to increase significantly, HCT116 (HCT116 cells): 36 h
confluence, HCT116 (HCT116 cells): up to 16%
time at which cell death starts to increase significantly, HCT116p53^−/− (HCT116 p53^−/− cells): 36 h
confluence, HCT116p53^−/− (HCT116 p53^−/− cells): up to 16%
IC50 ([3]; Homo sapiens, A-431, 72 h): 3.97 ± 0.87 µM
IC50 ([4]; Homo sapiens, Skin fibroblast): 23.1 ± 2.34 µM
IC50 ([5]; Homo sapiens, MRC5, 72 h): 28.7 ± 7.6 µM

N#CCC[C@H]1NC(=O)c2ccccc2-n2c1nc1ccccc1c2=O [auranthine]
cytotoxic activity against HepG2 (HepG2): no cytotoxic activities
cytotoxic activity against HCT-116 (HCT-116): no cytotoxic activities
cytotoxic activity against MDA-MB-435 (MDA-MB-435): no cytotoxic activities
cytotoxic activity against normal IKHE (normal IKHE cell line): no cytotoxic activities
cytotoxic activity against Calu-3 (Calu-3): no cytotoxic activities

CN1c2ccccc2C(=O)n2c3ccccc3c3ccnc1c32 [evodiagenine]
cytotoxic activity against Heps (liver cancer) [6]: exhibits cytotoxic activity
cytotoxic activity against Sarcoma 180 (Sarcoma 180): exhibits cytotoxic activity
